# Laboratory results as given in US8580825B2, “Oxadiazole inhibitors of leukotriene production” (Boehringer Ingelheim International GmbH, priority 2010, dated 2013).
# What was measured:
# [1] = biological target: T1, recombinant human FLAP protein (Homo sapiens, UniProt P20292); experiment: FLAP binding assay (Scintillation Proximity Assay, displacement of [125I]L-691,831); conditions: read-out: FLAP SPA IC50
# T1 construct: made in house; host or cells: Sf9 insect cells (100,000xg membrane fraction used)
# T1 sequence (P20292 1-161): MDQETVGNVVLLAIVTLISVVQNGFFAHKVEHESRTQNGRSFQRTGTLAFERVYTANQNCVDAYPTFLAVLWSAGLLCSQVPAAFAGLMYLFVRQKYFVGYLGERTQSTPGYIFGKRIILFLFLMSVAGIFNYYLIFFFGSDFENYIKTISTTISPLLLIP
# Description: Compounds are assessed for the ability to bind to FLAP in a binding assay that measures compound-specific displacement of an iodinated (^125I) FLAP inhibitor via a Scintillation Proximity Assay format (adapted from S. Charleson et al., Mol. Pharmacol., 1992, 41, 873-879).
# Cell pellets produced from sf9 insect cells expressing recombinant human FLAP protein are resuspended in buffer A [15 mM Tris-HCl (pH 7.5), 2 mM MgCl2, 0.3 mM EDTA, 1 mM PMSF]. The cells are lysed with a Dounce homogenizer and the material is centrifuged at 10,000×g for 10 minutes. The supernatant is then collected and centrifuged at 100,000×g for 60 minutes. To prepare membrane protein for an assay, an aliquot of the 100,000×g pellet is resuspended in 1 ml of buffer A, Dounce homogenized, and finally subjected to polytron mixing (30 seconds). Membrane protein (25 μl, 5 μg) is mixed with WGA SPA beads (Amersham) and stirred for 1 h. […] (final concentrations: beads, 200 μg/well; protein, 5 μg/well; [^125I] probe, 0.08 nM/well (17 nCi/well). The plates are shaken for 2 h before reading on a Microbeta plate reader. Non-specific binding is determined by the addition of 10 μM cold L-691,831 compound.
# [2] = system: synthesis of LTB4 in human whole blood; experiment: human whole blood LTB4 production inhibition assay; format: cell-based; conditions: calcimycin stimulated, read-out: hWB LTB4 IC50
# Description: Compounds are additionally tested in a human whole blood assay to determine their ability to inhibit the synthesis of LTB4 in a cellular system. Compounds are combined with heparinized human whole blood and incubated for 15 minutes at 37° C. Calcimycin (20 μM final, prepared in phosphate-buffered saline, pH 7.4) is then added and the mixture is incubated for another 30 minutes at 37° C. The samples are centrifuged for 5 min at low speed (1500×g) and the plasma layer is removed. Plasma LTB4 concentrations are then measured using an antibody-based homogenous time-resolved fluorescence method (CisBio, Bedford, Mass.).
IC50 [1] [nM],IC50 [2] [nM],Compound
76,200,"CN(C)C(=O)Cn1cc(-c2nc([C@@](C)(c3ccc(-c4cnc(N)nc4)nc3)C3CC3)no2)cn1 [Example 83, 2-[4-(3-{(1R)-1-[6-(2-aminopyrimidin-5-yl)pyridin-3-yl]-1-cyclopropylethyl}-1,2,4-oxadiazol-5-yl)-1H-pyrazol-1-yl]-N,N-dimethylacetamide]"
6.6,94,"CC(C)[C@](C)(c1ccc(-c2cnc(N)nc2)nc1)c1noc(-c2cnn(C(C)(C)CO)c2)n1 [Example 34, 2-[4-(3-{(2R)-2-[6-(2-aminopyrimidin-5-yl)pyridin-3-yl]-3-methylbutan-2-yl}-1,2,4-oxadiazol-5-yl)-1H-pyrazol-1-yl]-2-methylpropan-1-ol]"
3.8,72,"CC(C)n1cc(-c2nc(C(C)(c3ccc(-c4cnc(N)nc4)nc3)C(C)C)no2)cn1 (stereo not shown) [Example 28, 5-[5-(3-methyl-2-{5-[1-(propan-2-yl)-1H-pyrazol-4-yl]-1,2,4-oxadiazol-3-yl}butan-2-yl)pyridin-2-yl]pyrimidin-2-amine]"
670,> 5000,"CC(C)(c1ccc(-c2cnc(N)nc2)nc1)c1noc(-c2cn[nH]c2)n1 [Example 87, 5-(5-{2-[5-(1H-pyrazol-4-yl)-1,2,4-oxadiazol-3-yl]propan-2-yl}pyridin-2-yl)pyrimidin-2-amine]"
4.5,53,"CC(C)C(C)(c1ccc(-c2cnc(N)nc2)nc1)c1noc(-c2cnn(CCF)c2)n1 (stereo not shown) [Example 17, 5-[5-(2-{5-[1-(2-fluoroethyl)-1H-pyrazol-4-yl]-1,2,4-oxadiazol-3-yl}-3-methylbutan-2-yl)pyridin-2-yl]pyrimidin-2-amine]"
5.2,210,"CCOC(=O)C(C)(C)Cn1cc(-c2nc(C(C)(c3ccc(-c4cnc(N)nc4)nc3)C(C)C)no2)cn1 (stereo not shown) [Example 33, ethyl 3-[4-(3-{2-[6-(2-aminopyrimidin-5-yl)pyridin-3-yl]-3-methylbutan-2-yl}-1,2,4-oxadiazol-5-yl)-1H-pyrazol-1-yl]-2,2-dimethylpropanoate]"
8,29,"C[C@@](c1ccc(-c2cnc(N)nc2)nc1)(c1noc(-c2cnn(C3COC3)c2)n1)C1CC1 [Example 78, 5-{5-[(1R)-1-cyclopropyl-1-{5-[1-(oxetan-3-yl)-1H-pyrazol-4-yl]-1,2,4-oxadiazol-3-yl}ethyl]pyridin-2-yl}pyrimidin-2-amine]"
10,270,"CC(C)[C@](C)(c1ccc(-c2cnc(N)nc2)nc1)c1noc(-c2cnn(CCS(C)(=O)=O)c2)n1 [Example 128, 5-[5-((R)-1-{5-[1-(2-Methanesulfonyl-ethyl)-1H-pyrazol-4-yl]-[1,2,4]oxadiazol-3-yl}-1,2-dimethyl-propyl)-pyridin-2-yl]-pyrimidin-2-ylamine]"
5.9,25,"CC(C)C(C)(c1ccc(-c2cnc(N)nc2)nc1)c1noc(-c2cnn(C3COC3)c2)n1 (stereo not shown) [Example 9, 5-[5-(3-methyl-2-{5-[1-(oxetan-3-yl)-1H-pyrazol-4-yl]-1,2,4-oxadiazol-3-yl}butan-2-yl)pyridin-2-yl]pyrimidin-2-amine]"
1.6,28,"C=C(CO)n1cc(-c2nc(C(C)(c3ccc(-c4cnc(N)nc4)nc3)C3CC3)no2)cn1 (stereo not shown) [Example 65, 2-[4-(3-{1-[6-(2-aminopyrimidin-5-yl)pyridin-3-yl]-1-cyclopropylethyl}-1,2,4-oxadiazol-5-yl)-1H-pyrazol-1-yl]prop-2-en-1-ol]"
8.6,220,"CC(C)C(C)(c1ccc(-c2cnc(N)nc2)nc1)c1noc(-c2cnn(C(C)(C)CO)c2)n1 (stereo not shown) [Example 6, 2-[4-(3-{2-[6-(2-aminopyrimidin-5-yl)pyridin-3-yl]-3-methylbutan-2-yl}-1,2,4-oxadiazol-5-yl)-1H-pyrazol-1-yl]-2-methylpropan-1-ol]"

# The next lines start with the compound.
Compound,IC50 [1] [nM],IC50 [2] [nM]
"COCCN(C)c1cnc(-c2nc([C@](C)(c3ccc(-c4cnc(N)nc4)nc3)C(C)C)no2)cn1 [Example 56, 5-{5-[(2S)-2-(5-{5-[(2-methoxyethyl)(methyl)amino]pyrazin-2-yl}-1,2,4-oxadiazol-3-yl)-3-methylbutan-2-yl]pyridin-2-yl}pyrimidin-2-amine]",11.8,230
"COC1CCN(C(=O)Cn2cc(-c3nc([C@@](C)(c4ccc(-c5cnc(N)nc5)nc4)C(C)C)no3)cn2)C1 (stereo partly drawn) [Example 150, 2-[4-(3-{(R)-1-[6-(2-Amino-pyrimidin-5-yl)-pyridin-3-yl]-1,2-dimethyl-propyl}-1,2,4-oxadiazol-5-yl)-pyrazol-1-yl]-1-(3-methoxy-pyrrolidin-1-yl)-ethanone]",42,180
"COCCn1cc(-c2nc([C@@](C)(c3ccc(-c4cnc(N)cn4)nc3)C(C)C)no2)cn1 [Example 104, 5-[5-((R)-1-{5-[1-(2-Methoxy-ethyl)-1H-pyrazol-4-yl]-[1,2,4]oxadiazol-3-yl}-1,2-dimethyl-propyl)-pyridin-2-yl]-pyrazin-2-ylamine]",5.7,17
"CC(C)[C@@](C)(c1ccc(-c2cnc(N)nc2)nc1)c1noc(-c2cnc(NC(C)(C)CO)cn2)n1 [Example 95, 2-[5-(3-{(S)-1-[6-(2-Amino-pyrimidin-5-yl)-pyridin-3-yl]-1,2-dimethyl-propyl}-[1,2,4]oxadiazol-5-yl)-pyrazin-2-ylamino]-2-methyl-propan-1-ol]",92,210
"Cn1cc(-c2nc(C(C)(c3ccc(-c4ccc(N)nc4)nc3)C3CC3)no2)cn1 (stereo not shown) [Example 118, 5-{1-Cyclopropyl-1-[5-(1-methyl-1H-pyrazol-4-yl)-[1,2,4]oxadiazol-3-yl]-ethyl}-[2,3′]bipyridinyl-6′-ylamine]",47,210
"CC(C)CNC(=O)Cn1cc(-c2nc([C@@](C)(c3ccc(-c4cnc(N)nc4)nc3)C(C)C)no2)cn1 [Example 145, 2-[4-(3-{(R)-1-[6-(2-Amino-pyrimidin-5-yl)-pyridin-3-yl]-1,2-dimethyl-propyl}-1,2,4-oxadiazol-5-yl)-pyrazol-1-yl]-N-isobutyl-acetamide]",14,110
"COCCn1cc(-c2nc([C@@](C)(c3ccc(-c4cnc(N)cn4)nc3)C3CC3)no2)cn1 [Example 126, 5-[5-((R)-1-Cyclopropyl-1-{5-[1-(2-methoxy-ethyl)-1H-pyrazol-4-yl]-[1,2,4]oxadiazol-3-yl}-ethyl)-pyridin-2-yl]-pyrazin-2-ylamine]",8.8,25
"CC(C)[C@](C)(c1ccc(-c2cnc(N)nc2)nc1)c1noc(-c2cnn(CC(=O)NC3CCOCC3)c2)n1 [Example 154, 2-[4-(3-{(R)-1-[6-(2-Amino-pyrimidin-5-yl)-pyridin-3-yl]-1,2-dimethyl-propyl}-1,2,4-oxadiazol-5-yl)-pyrazol-1-yl]-N-(tetrahydro-pyran-4-yl)-acetamide]",21,550
"CC(C)(O)Cn1cc(-c2nc([C@@](C)(c3ccc(-c4ccc(N)nc4)nc3)C3CC3)no2)cn1 [Example 139, 1-(4-{3-[(R)-1-(6′-Amino-[2,3′]bipyridinyl-5-yl)-1-cyclopropyl-ethyl]-[1,2,4]oxadiazol-5-yl}-pyrazol-1-yl)-2-methyl-propan-2-ol]",33,68
